Earlier results as cited in patent US20220257611A1 (APTYS Pharmaceuticals SAS, priority 2019, published 2022).

Experiments:
[1] = in vivo
[2] = in vivo; remark: listed apart in the source

elimination half-life [1] | Structure (SMILES) | median effective analgesic dose (median value and 95% confidence interval) [2]
four | CN1CCOC(c2ccccc2)c2ccccc2C1 (centres unmarked) [nefopam, 5-methyl-1-phenyl-1,3,4,6-tetrahydro-2,5-benzoxazocine] | 
 | CC(=O)Nc1ccc(O)cc1 [acetaminophen, N-acetyl-p-amino-phenol] | 500 mg
